One assay deals with E. coli BW25113 ΔtolC. The assay can be described thus: MIC, microdilution in 96-well plates. The settings on record: Escherichia coli. A general note: Broth dilution looks for growth in wells or tubes with falling amounts of substance.
For assay [1], the system named is E. coli BW25113 ΔtolC cipR isolate GyrA Ser83Leu. The assay can be described thus: MIC against ciprofloxacin-resistant mutant. The settings on record: Escherichia coli, BW25113.
Description: (§2) A microdilution method in 96-well plates was used and the MIC protocol established by the Clinical Laboratory Standards Institute was followed. From a growing subculture, a 1:10000 inoculum of each strain in Luria-Bertani media was prepared and aliquoted 100 μL in 4 columns of wells, except for the top row wells, which contained 200 μL of inoculum. […] The liquid in each of wells was mixed with a multi-channel pipet and 100 μL was transferred to the next well and mixed. The 2-fold dilution was continued down the 96-well plate until 100 μL was left, which was discarded. The plates were incubated at 37° C. with shaking for 16-18 hours. The MIC was determined as the lowest concentration that inhibited growth and had no turbidity by visual inspection.
For another assay, the system named is Staphylococcus aureus. The assay can be described thus: MIC, microdilution in 96-well plates.
The test system of assay [2] is E. coli BW25113 ΔtolC cipR isolate GyrA Asp87Gly. The assay can be described thus: MIC against ciprofloxacin-resistant mutant. Particulars: Escherichia coli, BW25113.
Description: as §2
The test system of a further assay is Pseudomonas aeruginosa. The assay is described as follows: MIC, microdilution in 96-well plates. Type of assay: cell-based. Particulars: read-out: MIC. The essentials: (§1)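 First, a 1:10000 inoculum of each strain was made in Luria-Bertani medium from a growing subculture. Next, the compound was added and diluted 2-fold down the plate in three replicate columns, with DMSO in a fourth. Finally, plates were shaken at 37° C. for 16-18 hours and scored visually.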

Another assay has as its system Edwardsiella tarda. The assay is described as follows: MIC, microdilution in 96-well plates. The settings on record: read-out: MIC. Type of assay: cell-based. The essentials:
as §1

The next assay relates to Enterobacter aerogenes. The assay can be described thus: MIC, microdilution in 96-well plates. The settings on record: Klebsiella aerogenes, Enterobacter aerogenes, read-out: MIC. It counts as cell-based. The essentials:
as §1

The test system of assay [3] is E. coli BW25113 ΔtolC gyrR isolate GyrA His45Tyr. The assay can be described thus: MIC against gyramide-resistant mutant. The settings on record: Escherichia coli, BW25113.
Description: as §2
For the next assay, the system named is Morganella morganii. The assay can be described thus: MIC, microdilution in 96-well plates.
Another assay has as its system wild-type E. coli. The assay is described as follows: Killing / inhibition of wild-type E. coli. Type of assay: cell-based, Escherichia coli. An excerpt: The compounds of the invention are observed to inhibit wild-type E. coli.
The next assay concerns Shigella boydii. The assay can be described thus: MIC, microdilution in 96-well plates.
In assay [4] the test system is mutant E. coli (with a drug pump knock out). The assay can be described thus: Killing of mutant E. coli. It counts as cell-based, Escherichia coli.
[5] abbreviates: Table 7, separate set of experiments.

In brackets after ≈: the same amount, converted by molar mass. Where two headings read alike, the source gives them in different places.

The term MIC denotes the least concentration at which growth counts as inhibited.

Take `N#Cc1cccc(S(=O)(=O)N[C@@H]2CCN(Cc3ccc(-c4ccccc4)cc3)C2)c1` [Gyramide C2, gyramide C2]: the MIC was 0.1 µM (≈ 0.0418 µg/mL) in the assay with E. coli BW25113 ΔtolC (BW25113, E. coli BW25113 ΔtolC (parent strain), Table 4); 0.1 µM (≈ 0.0418 µg/mL) in the assay with E. coli BW25113 ΔtolC (BW25113, E. coli BW25113 ΔtolC (parent strain), Table 5); 0.25 µM (≈ 0.104 µg/mL) against E. coli BW25113 ΔtolC (BW25113, E. coli BW25113 ΔtolC, without PAβN, Table 3); 0.4 µM (≈ 0.167 µg/mL) in assay [1]; 40 µM (≈ 16.7 µg/mL) in the assay with Staphylococcus aureus (with PAβN (60 μM)); 160 µM (≈ 66.8 µg/mL) in the assay with Staphylococcus aureus (without PAβN). Besides, the MIC in [2] is 0.8 µM (≈ 0.334 µg/mL); in the assay on Pseudomonas aeruginosa (setting [5]), > 16 µg/mL; in the assay with Pseudomonas aeruginosa (with PAβN (60 μM)), 20 µM; in the assay with Pseudomonas aeruginosa (without PAβN), > 640 µM; in the assay with Edwardsiella tarda (setting [5]), 16 µg/mL; in the assay with Edwardsiella tarda (with PAβN (60 μM)), 20 µM. In addition, the MIC was > 640 µM in the assay on Edwardsiella tarda (without PAβN); > 16 µg/mL with Enterobacter aerogenes (setting [5]); 10 µM with Enterobacter aerogenes (with PAβN (60 μM)); > 640 µM in the assay with Enterobacter aerogenes (without PAβN); > 25.6 µM in assay [3]; > 640 µM in the assay with Morganella morganii. In addition, the MIC in the assay with Morganella morganii (without PAβN) is >640 µM; in the assay with Shigella boydii (with PAβN (60 μM)) it was 1.25 µM (≈ 0.522 µg/mL); with Shigella boydii (without PAβN), 80 µM (≈ 33.4 µg/mL). The “concentration observed to kill wild-type E. coli” value in the assay with wild-type E. coli turned out to be 20 µM. Besides, in [4], the “concentration observed to kill mutant E. coli” value came out at 300 nM.

(Values after patent US10253039B2, “Inhibitors of bacterial DNA gyrase with efficacy against gram-negative bacteria” (priority 2014, dated 2019).)
